# Test results: patent publication US20230125667A1, “NOVEL TDZD ANALOGS AS AGENTS THAT DELAY, PREVENT, OR REVERSE AGE-ASSOCIATED DISEASES AND AS ANTI-CANCER AND ANTILEUKEMIC AGENTS” (United States Government as represented by the Department …, priority 2020, published 2023)
# Assays:
# HT29 = assay: NCI-60 growth inhibition: HT29 (Colon Cancer); format: cell-based, human; conditions: Homo sapiens, HT-29
# OVCAR-3 = assay: NCI-60 growth inhibition: OVCAR-3 (Ovarian Cancer); format: cell-based, human; conditions: Homo sapiens
# UACC-257 = assay: NCI-60 growth inhibition: UACC-257 (Melanoma); format: cell-based, human; conditions: Homo sapiens
# DU-145 = assay: NCI-60 growth inhibition: DU-145 (Prostate Cancer); format: cell-based, human; conditions: Homo sapiens
# CCRF-CEM = assay: NCI-60 growth inhibition: CCRF-CEM (Leukemia); format: cell-based, human; conditions: Homo sapiens
# NCI-H460 = assay: NCI-60 growth inhibition: NCI-H460 (Non-Small-Cell Lung Cancer); format: cell-based, human; conditions: Homo sapiens
# SK-MEL-28 = assay: NCI-60 growth inhibition: SK-MEL-28 (Melanoma); format: cell-based, human; conditions: Homo sapiens
# NCI-H23 = assay: NCI-60 growth inhibition: NCI-H23 (Non-Small-Cell Lung Cancer); format: cell-based, human; conditions: Homo sapiens
# COLO 205 = assay: NCI-60 growth inhibition: COLO 205 (Colon Cancer); format: cell-based, human; conditions: Homo sapiens
# SN12C = assay: NCI-60 growth inhibition: SN12C (Renal Cancer); format: cell-based, human; conditions: Homo sapiens
# EKVX = assay: NCI-60 growth inhibition: EKVX (Non-Small-Cell Lung Cancer); format: cell-based, human; conditions: Homo sapiens
# MALME-3M = assay: NCI-60 growth inhibition: MALME-3M (Melanoma); format: cell-based, human; conditions: Homo sapiens
# UACC-62 = assay: NCI-60 growth inhibition: UACC-62 (Melanoma); format: cell-based, human; conditions: Homo sapiens
# MOLT-4 = assay: NCI-60 growth inhibition: MOLT-4 (Leukemia); format: cell-based, human; conditions: Homo sapiens
# SR = assay: NCI-60 growth inhibition: SR (Leukemia); format: cell-based, human; conditions: Homo sapiens
# SF-539 = assay: NCI-60 growth inhibition: SF-539 (CNS Cancer); format: cell-based, human; conditions: Homo sapiens
# MDA-MB-468 = assay: NCI-60 growth inhibition: MDA-MB-468 (Breast Cancer); format: cell-based, human; conditions: Homo sapiens; MDA-MB-468 (Breast Cancer); read-out: GI50
# U251 = assay: NCI-60 growth inhibition: U251 (CNS Cancer); format: cell-based, human; conditions: Homo sapiens, U-251
# M14 = assay: NCI-60 growth inhibition: M14 (Melanoma); format: cell-based, human; conditions: Homo sapiens
# HOP-92 = assay: NCI-60 growth inhibition: HOP-92 (Non-Small-Cell Lung Cancer); format: cell-based, human; conditions: Homo sapiens
# LOX IMVI = assay: NCI-60 growth inhibition: LOX IMVI (Melanoma); format: cell-based, human; conditions: Homo sapiens
# [1] = system: human leukemia cell lines; assay: NCI-60 growth inhibition, leukemia cell lines
# SK-MEL-5 = assay: NCI-60 growth inhibition: SK-MEL-5 (Melanoma); format: cell-based, human; conditions: Homo sapiens
# A498 = assay: NCI-60 growth inhibition: A498 (Renal Cancer); format: cell-based, human; conditions: Homo sapiens
# SK-MEL-2 = assay: NCI-60 growth inhibition: SK-MEL-2 (Melanoma); format: cell-based, human; conditions: Homo sapiens
# ACHN = assay: NCI-60 growth inhibition: ACHN (Renal Cancer); format: cell-based, human; conditions: Homo sapiens
# HS 578T = assay: NCI-60 growth inhibition: HS 578T (Breast Cancer); format: cell-based, human; conditions: Homo sapiens
# RXF 393 = assay: NCI-60 growth inhibition: RXF 393 (Renal Cancer); format: cell-based, human; conditions: Homo sapiens
# MCF7 = assay: NCI-60 growth inhibition: MCF7 (Breast Cancer); format: cell-based, human; conditions: Homo sapiens
# PC-3 = assay: NCI-60 growth inhibition: PC-3 (Prostate Cancer); format: cell-based, human; conditions: Homo sapiens
# [2] = system: MV4-11 cell line (myelomonocytic leukemia); conditions: MV4-11 cells
# OVCAR-8 = assay: NCI-60 growth inhibition: OVCAR-8 (Ovarian Cancer); format: cell-based, human; conditions: Homo sapiens
# T-47D = assay: NCI-60 growth inhibition: T-47D (Breast Cancer); format: cell-based, human; conditions: Homo sapiens, T47D
# SW-620 = assay: NCI-60 growth inhibition: SW-620 (Colon Cancer); format: cell-based, human; conditions: Homo sapiens
# NCI-H522 = assay: NCI-60 growth inhibition: NCI-H522 (Non-Small-Cell Lung Cancer); conditions: Homo sapiens, NCI-H522
# IGROV1 = assay: NCI-60 growth inhibition: IGROV1 (Ovarian Cancer); format: cell-based, human; conditions: Homo sapiens, IGROV-1
# MDA-MB-435 = assay: NCI-60 growth inhibition: MDA-MB-435 (Melanoma); format: cell-based, human; conditions: Homo sapiens
# 786-0 = assay: NCI-60 growth inhibition: 786-0 (Renal Cancer); format: cell-based, human; conditions: Homo sapiens
# OVCAR-4 = assay: NCI-60 growth inhibition: OVCAR-4 (Ovarian Cancer); format: cell-based, human; conditions: Homo sapiens
# SF-268 = assay: NCI-60 growth inhibition: SF-268 (CNS Cancer); format: cell-based, human; conditions: Homo sapiens
# MDA-MB-231/ATCC = assay: NCI-60 growth inhibition: MDA-MB-231/ATCC (Breast Cancer); format: cell-based, human; conditions: Homo sapiens
# K-562 = assay: NCI-60 growth inhibition: K-562 (Leukemia); format: cell-based, human; conditions: Homo sapiens, K562
# OVCAR-5 = assay: NCI-60 growth inhibition: OVCAR-5 (Ovarian Cancer); format: cell-based, human; conditions: Homo sapiens
# TK-10 = assay: NCI-60 growth inhibition: TK-10 (Renal Cancer); format: cell-based, human; conditions: Homo sapiens
# HCT-15 = assay: NCI-60 growth inhibition: HCT-15 (Colon Cancer); format: cell-based, human; conditions: Homo sapiens
# HCT-116 = assay: NCI-60 growth inhibition: HCT-116 (Colon Cancer); conditions: Homo sapiens, HCT-116
# HL-60(TB) = assay: NCI-60 growth inhibition: HL-60(TB) (Leukemia); format: cell-based, human; conditions: Homo sapiens; HL-60(TB) (Leukemia); read-out: GI50
# RPMI-8226 = assay: NCI-60 growth inhibition: RPMI-8226 (Leukemia); format: cell-based, human; conditions: Homo sapiens
# SNB-19 = assay: NCI-60 growth inhibition: SNB-19 (CNS Cancer); format: cell-based, human; conditions: Homo sapiens
# CAKI-1 = assay: NCI-60 growth inhibition: CAKI-1 (Renal Cancer); format: cell-based, human; conditions: Homo sapiens
# UO-31 = assay: NCI-60 growth inhibition: UO-31 (Renal Cancer); format: cell-based, human; conditions: Homo sapiens
# BT-549 = assay: NCI-60 growth inhibition: BT-549 (Breast Cancer); format: cell-based, human; conditions: Homo sapiens
compound,measurement,setting,value
C=C1C(=O)O[C@H]2[C@H]1CC/C(COC(=O)NCc1ccc(Cn3c(=O)sn(CCCC)c3=O)cc1)=C\CC[C@@]1(C)O[C@@H]21 [BSK-230],GI50,HT29,2080 nM
same,GI50,OVCAR-3,1590 nM
same,GI50,UACC-257,2030 nM
same,GI50,DU-145,1810 nM
same,GI50,CCRF-CEM,650 nM
same,GI50,NCI-H460,5920 nM
same,GI50,SK-MEL-28,1800 nM
same,GI50,NCI-H23,4190 nM
same,GI50,COLO 205,2000 nM
same,GI50,SN12C,1730 nM
same,GI50,EKVX,3320 nM
same,GI50,MALME-3M,1600 nM
same,GI50,UACC-62,1620 nM
same,GI50,MOLT-4,1550 nM
same,GI50,SR,400 nM
same,GI50,SF-539,1680 nM
same,GI50,MDA-MB-468,1730 nM
same,GI50,U251,41500 nM
same,GI50,M14,1450 nM
same,GI50,HOP-92,1290 nM
same,GI50,LOX IMVI,1650 nM
same,GI50,[1]; Homo sapiens,280 to 900 nM
same,potency against leukemia cell lines (GI50 <1.0),[1]; NCI panel,highly potent against 3 of the 6 leukemia cell lines
same,GI50,SK-MEL-5,3180 nM
same,GI50,A498,3280 nM
same,GI50,SK-MEL-2,4530 nM
same,GI50,ACHN,1670 nM
same,GI50,HS 578T,3240 nM
same,GI50,RXF 393,1570 nM
same,GI50,MCF7,1870 nM
same,GI50,PC-3,1750 nM
same,"LD50, 7AAD (μM) 24 h","[2]; 24 h, 7AAD, MMB-TDZD analogs (Table 2)",0.01 µM
same,"LD50, Alamar blue (μM) 24 h","[2]; 24 h, Alamar blue, MMB-TDZD analogs (Table 2)",0.30 µM
same,"LD50, YOPRO (μM) 24 h","[2]; 24 h, YOPRO, MMB-TDZD analogs (Table 2)",0.02 µM
same,LD50,[2]; values in text,20 nM
same,GI50,OVCAR-8,3640 nM
same,GI50,T-47D,2040 nM
same,GI50,SW-620,1510 nM
same,GI50,NCI-H522,1190 nM
same,GI50,IGROV1,1830 nM
same,GI50,MDA-MB-435,1650 nM
same,GI50,786-0,2000 nM
same,GI50,OVCAR-4,1520 nM
same,GI50,SF-268,4280 nM
same,GI50,MDA-MB-231/ATCC,1800 nM
same,GI50,K-562,890 nM
same,GI50,OVCAR-5,1930 nM
same,GI50,TK-10,1810 nM
same,GI50,HCT-15,2020 nM
same,GI50,HCT-116,1360 nM
same,GI50,HL-60(TB),1810 nM
same,GI50,RPMI-8226,1480 nM
same,GI50,SNB-19,6630 nM
same,GI50,CAKI-1,1640 nM
same,GI50,UO-31,1450 nM
same,GI50,BT-549,1560 nM
